Experimental data: patent US8697868B2, “8-[3-amino-piperidin-1-yl]-xanthines, their preparation and their use as pharmaceutical compositions” (Boehringer Ingelheim International GmbH, priority 2004, dated 2014)

How the values were obtained:
DPP-IV = DPP-IV (Homo sapiens (Human), UniProt P27487); test: DPP-IV assay with Caco-2 cell extract as DPP IV source; format: biochemical; details: extract of human colon carcinoma cell line Caco-2 as DPP IV source; AFC substrate 100 μM; 60 minutes at ambient temperature; read-out: DPP IV inhibition IC50
Protocol: The differentiation of the cells in order to induce the DPP-IV expression was carried out in accordance with the description by Reiher et al. in an article entitled “Increased expression of intestinal cell line Caco-2” that appeared in Proc. Natl. Acad. Sci. Vol. 90, pp. 5757-5761 (1993). The cell extract was obtained from cells solubilized in a buffer (10 mM Tris HCl, 0.15 M NaCl, 0.04 t.i.u. aprotinin, 0.5% Nonidet-P40, pH 8.0) by centrifugation at 35,000 g for 30 minutes at 4° C. (to remove cell debris).
The DPP-IV assay was carried out as follows:
50 μl of substrate solution (AFC; AFC is amido-4-trifluoromethylcoumarin), final concentration 100 μM, was placed in black microtitre plates. 20 μl of assay buffer (final concentrations 50 mM Tris HCl pH 7.8, 50 mM NaCl, 1% DMSO) was pipetted therein. The reaction was started by the addition of 30 μl of solubilized Caco-2 protein (final concentration 0.14 μg of protein per well). The test substances under investigation were typically added prediluted to 20 μl, while the volume of assay buffer was then reduced accordingly. The reaction was carried out at ambient temperature, the incubation period was 60 minutes. Then the fluorescence was measured in a Victor 1420 Multilabel Counter, with the excitation wavelength at 405 nm and the emission wavelength at 535 nm. Dummy values (corresponding to 0% activity) were obtained in mixtures with no Caco-2 protein (volume replaced by assay buffer), control values (corresponding to 100% activity) were obtained in mixtures without any added substance. The potency of the test substances in question, expressed as IC50 values, were calculated from dosage/activity curves consisting of 11 measured points in each case.

rats = test: Tolerability after oral administration in rats; format: in vivo; details: oral administration of 10 mg/kg

DPP-IV, sequence (P27487 whole entry): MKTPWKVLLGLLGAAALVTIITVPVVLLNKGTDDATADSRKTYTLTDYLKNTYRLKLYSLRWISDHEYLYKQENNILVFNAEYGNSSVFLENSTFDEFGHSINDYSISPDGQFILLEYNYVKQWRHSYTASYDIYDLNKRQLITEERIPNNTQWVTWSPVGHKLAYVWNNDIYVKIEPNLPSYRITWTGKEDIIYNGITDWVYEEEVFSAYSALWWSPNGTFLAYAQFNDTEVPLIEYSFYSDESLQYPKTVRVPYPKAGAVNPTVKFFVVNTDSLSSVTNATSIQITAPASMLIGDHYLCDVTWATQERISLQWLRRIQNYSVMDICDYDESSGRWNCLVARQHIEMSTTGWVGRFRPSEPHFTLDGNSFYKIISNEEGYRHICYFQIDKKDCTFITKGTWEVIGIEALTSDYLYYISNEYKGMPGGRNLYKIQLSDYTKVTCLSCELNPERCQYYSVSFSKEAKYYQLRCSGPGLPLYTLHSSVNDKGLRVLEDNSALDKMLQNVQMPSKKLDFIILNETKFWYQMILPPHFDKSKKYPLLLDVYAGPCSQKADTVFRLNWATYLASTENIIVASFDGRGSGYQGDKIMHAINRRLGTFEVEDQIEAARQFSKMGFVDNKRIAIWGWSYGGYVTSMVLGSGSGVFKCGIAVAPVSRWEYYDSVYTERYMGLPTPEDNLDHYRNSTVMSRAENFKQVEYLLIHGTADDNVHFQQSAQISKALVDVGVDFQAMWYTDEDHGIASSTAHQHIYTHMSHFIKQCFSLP

Row | SMILES | IC50 (DPP-IV) [nM] | melting point [°C] | toxic side effects (rats)
1 | CC#CCn1c(N2CCC[C@@H](N)C2)nc2c1c(=O)n(Cc1cc(C#N)cc3ccccc13)c(=O)n2C [1(3), 1-[(3-cyano-naphthalen-1-yl)methyl]-3-methyl-7-(2-butyn-1-yl)-8-((R)-3-amino-piperidin-1-yl)-xanthine] | 6 | – | –
2 | CC#CCn1c(N2CCC[C@@H](N)C2)nc2c1c(=O)n(Cc1cc(C#N)c3ccccc3n1)c(=O)n2C [1(6), 1-[(4-cyano-quinolin-2-yl)methyl]-3-methyl-7-(2-butyn-1-yl)-8-((R)-3-amino-piperidin-1-yl)-xanthine] | 2 | – | –
3 | CC#CCn1c(N2CCC[C@@H](N)C2)nc2c1c(=O)n(Cc1nccc(-c3ccccc3)n1)c(=O)n2C [1(31), 1-[(4-phenyl-pyrimidin-2-yl)methyl]-3-methyl-7-(2-butyn-1-yl)-8-((R)-3-amino-piperidin-1-yl)-xanthine] | 3 | – | –
4 | CC#CCn1c(N2CCC[C@@H](N)C2)nc2c1c(=O)n(Cc1nc(C)cc(C)n1)c(=O)n2C [Example 1(82), 1-[(4,6-dimethyl-pyrimidin-2-yl)methyl]-3-methyl-7-(2-butyn-1-yl)-8-((R)-3-amino-piperidin-1-yl)-xanthine] | – | 202 to 204 | –
5 | CC#CCn1c(N2CCC[C@@H](N)C2)nc2c1c(=O)n(Cc1ccccc1)c(=O)n2C [Example 1(43), 1-benzyl-3-methyl-7-(2-butyn-1-yl)-8-((R)-3-amino-piperidin-1-yl)-xanthine] | – | 207 to 209 | –
6 | CC#CCn1c(N2CCC[C@@H](N)C2)nc2c1c(=O)n(CC(=O)c1cccc(OC3CC3)c1)c(=O)n2C [1(7), 1-[2-(3-cyclopropyloxy-phenyl)-2-oxo-ethyl]-3-methyl-7-(2-butyn-1-yl)-8-((R)-3-amino-piperidin-1-yl)-xanthine] | 5 | – | –
7 | CC#CCn1c(N2CCC[C@@H](N)C2)nc2c1c(=O)n(Cc1nc3ccccc3cc1C#N)c(=O)n2C [Example 1(30), 1-[(3-cyano-quinolin-2-yl)methyl]-3-methyl-7-(2-butyn-1-yl)-8-((R)-3-amino-piperidin-1-yl)-xanthine] | 2 | – | no toxic side effects could be detected

Further lines, with some results ahead:

Row | IC50 (DPP-IV) [nM] | melting point [°C] | SMILES | toxic side effects (rats)
8 | 9 | – | CC#CCn1c(N2CCC[C@@H](N)C2)nc2c1c(=O)n(Cc1nc(-c3ccccc3)nc3ccccc13)c(=O)n2C [1(4), 1-[(2-phenyl-quinazolin-4-yl)methyl]-3-methyl-7-(2-butyn-1-yl)-8-((R)-3-amino-piperidin-1-yl)-xanthine] | –
9 | 2 | – | CC#CCn1c(N2CCC[C@@H](N)C2)nc2c1c(=O)n(Cc1ccccc1C#N)c(=O)n2C [1(39), 1-(2-cyano-benzyl)-3-methyl-7-(2-butyn-1-yl)-8-((R)-3-amino-piperidin-1-yl)-xanthine] | –
10 | 2 | – | CC#CCn1c(N2CCC[C@@H](N)C2)nc2c1c(=O)n(CC(=O)c1ccccc1-c1cccnc1)c(=O)n2C [1(21), 1-{2-oxo-2-[2-(pyridin-3-yl)-phenyl]-ethyl}-3-methyl-7-(2-butyn-1-yl)-8-((R)-3-amino-piperidin-1-yl)-xanthine] | –
11 | 2 | – | CC#CCn1c(N2CCC[C@@H](N)C2)nc2c1c(=O)n(Cc1cnc3cccnc3c1)c(=O)n2C [1(26), 1-[([1,5]naphthyridin-3-yl)methyl]-3-methyl-7-(2-butyn-1-yl)-8-((R)-3-amino-piperidin-1-yl)-xanthine] | –
12 | – | 166 | CC#CCn1c(N2CCC[C@@H](N)C2)nc2c1c(=O)n(Cc1cnccc1C#N)c(=O)n2C [Example 1(102), 1-[(4-cyano-pyridin-3-yl)methyl]-3-methyl-7-(2-butyn-1-yl)-8-((R)-3-amino-piperidin-1-yl)-xanthine] | –
13 | 2 | – | CC#CCn1c(N2CCC[C@@H](N)C2)nc2c1c(=O)n(Cc1ccc3nc(C)c(C)nc3c1)c(=O)n2C [1(12), 1-[(2,3-dimethyl-quinoxalin-6-yl)methyl]-3-methyl-7-(2-butyn-1-yl)-8-((R)-3-amino-piperidin-1-yl)-xanthine] | –
14 | 6 | – | CC#CCn1c(N2CCCC(N)C2)nc2c1c(=O)n(Cc1nc(Nc3ccccc3)c3ccccc3n1)c(=O)n2C (stereo not shown) [Example 1, 1-[(4-phenylamino-quinazolin-2-yl)methyl]-3-methyl-7-(2-butyn-1-yl)-8-(3-amino-piperidin-1-yl)-xanthine] | –
15 | 1 | – | CC#CCn1c(N2CCC[C@@H](N)C2)nc2c1c(=O)n(Cc1ccc3cncnc3c1)c(=O)n2C [1(38), 1-[(quinazolin-7-yl)methyl]-3-methyl-7-(2-butyn-1-yl)-8-((R)-3-amino-piperidin-1-yl)-xanthine] | –
